# Test results reported in PMC8989888, “Development of optimized drug-like small molecule inhibitors of the SARS-CoV-2 3CL protease for treatment of COVID-19” (Nature Communications, 2022).
# Several values for one entry are separate records, joined by “and”; a condition that tells them apart may be missing. Equal values may be shown once. Read-outs that look alike come from different tables or passages of the source.
# Molecular target: SARS-CoV-2 3CL protease (Severe acute respiratory syndrome coronavirus 2, UniProt P0DTD1)
# Test: biochemical
# Conditions: for Normalized SARS-CoV-2 3CL protease activity: 0.2 µM protease with 50 µM tested compound; for Normalized SARS-CoV-2 3CL protease activity / Protease activity (normalized): replicates; for activity against SARS-CoV-2 3CL protease (in words): compound 4 analogs
# [1] = 200 nM protease, read-out: IC50
Compound,Normalized SARS-CoV-2 3CL protease activity,IC50 [1] [µM],activity against SARS-CoV-2 3CL protease (in words),other results
CC(C)(C)OC(=O)NC(CO)CC1CCNC1=O (stereo not shown) [AZVIII-30],0.9915 and 0.9651 and 0.9186,> 50,did not produce active compounds,–
CCOC(=O)/C=C/[C@H](C[C@@H]1CCNC1=O)NC(=O)[C@H](CC(C)C)NC(=O)OC(C)(C)C [AZVIII-33B],1.107 and 0.6918 and 1.159,> 50,inactive,–
CC(C)C[C@H](NC(=O)OC(C)(C)C)C(=O)N[C@H](CO)C[C@@H]1CCNC1=O [AZVIII-37A],0.8312 and 1.007 and 1.0118,> 50,inactive,–
COC(=O)[C@H](C[C@@H]1CCNC1=O)NC(=O)OC(C)(C)C [AZVIII-38],1.058 and 1.088 and 0.9126,> 50,did not produce active compounds,–
"O=c1[nH]sc2ccccc12 [AZVIII-40A, 1,2-Benzisothiazol-3(2H)-one, reference compound]",–,–,–,IC50 (IC50): 0.79 µM
CCOC(=O)C=CC(CC1CCNC1=O)NC(=O)C(CC(C)C)NC(=O)OCc1ccccc1 (stereo not shown) [AZVIII-41A],0.05469 and 0.07659 and 0.08287,> 50,–,"IC90 (200 nM protease): > 50 µM; Protease activity (normalized) (200 nM protease, log10[nM] 0.404879): 0.9534 and 1.001 and 1.046; Protease activity (normalized) (200 nM protease, log10[nM] 0.882): 0.9954 and 1.035 and 1.1072; Protease activity (normalized) (200 nM protease, log10[nM] 1.35912): 0.9788 and 1.032 and 1.063; Protease activity (normalized) (200 nM protease, log10[nM] 1.83624): 0.8536 and 0.8662 and 0.892; Protease activity (normalized) (200 nM protease, log10[nM] 2.31336): 0.8339 and 0.8695 and 0.9444; Protease activity (normalized) (200 nM protease, log10[nM] 2.79048): 0.86 and 0.9004 and 0.9124; Protease activity (normalized) (200 nM protease, log10[nM] 3.26761): 0.9439 and 0.9917 and 1.018; Protease activity (normalized) (200 nM protease, log10[nM] 3.74473): 0.9845 and 1.046 and 1.061; Protease activity (normalized) (200 nM protease, log10[nM] 4.22185): 0.8912 and 0.9195 and 0.9785; Protease activity (normalized) (200 nM protease, log10[nM] 4.69897): 0.4548 and 0.5207 and 0.5344; Protease activity (normalized) (200 nM protease, log10[nM] -0.0722425): 0.8359 and 0.8847 and 0.9024; Protease activity (normalized) (200 nM protease, log10[nM] -0.549364): 0.7778 and 0.8128 and 0.8188"
CC(C)(C)OC(=O)NC(C=O)CC1CCNC1=O (stereo not shown) [AZVIII-42],0.09531 and 0.1273 and 0.138,–,functioned slightly better,IC90 (200 nM protease): > 50 µM
CC(C)(C)OC(=O)NC(CC1CCNC1=O)Cn1sc2ccccc2c1=O (stereo not shown) [AZVIII-43A],1.104 and 1.129 and 1.238,> 50,did not produce active compounds,–
O=S(=O)(NCc1cccnc1)c1cccnc1 [AZVIII-44B],1.138 and 1.193 and 1.162,> 50,–,–
O=S(=O)(NCc1ccccc1)c1ccccc1 [AZVIII-44D],1.234 and 1.326 and 1.299,> 50,–,–
O=S(=O)(NCc1ccccc1)c1cccnc1 [AZVIII-44E],1.222 and 1.184 and 1.143,> 50,–,–
